Patent US20110135671A1, “PURINE DERIVATIVES FOR USE IN THE TREATMENT OF ALLERGIC, INFLAMMATORY AND INFECTIOUS DISEASES” (GLAXOSMITHKLINE LLC, priority 2008, published 2011)
Structures can show the parent of a compound that is named as a salt.

System: Interferon-α
Experiment: Induction of Interferon-α using cryopreserved human PBMCs
Type: cell-based
Conditions: PBMC, 24 h, normalised to 1 uM resiquimod, read-out: mean pEC50 for induction of Interferon-α (converted)
Procedure: Assay for the Induction of Interferon-α using Cryopreserved Human Peripheral Blood Mononuclear Cells (PBMCs)
Compounds were dissolved in DMSO. Serial 2-fold dilutions with DMSO were prepared and 0.25 μl dispensed into 384-well clear Greiner polypropylene plates.
Blood samples of up to 200 ml were obtained from healthy human donors. Whole blood in 25 ml volumes was overlaid onto 15 ml Ficoll gradients in Leucosep tubes, and centrifuged at 1000 g for 20 min. Cells in the band at the plasma/histopaque interface were carefully removed and washed twice with PBS (centrifuged at 400 g for 5 min to harvest). The final pellet was resuspended in freezing medium (90% Heat-inactivated serum, 10% DMSO) to a cell concentration of 4×10^7 cells/ml. The resuspended cells were then cryopreserved (frozen) using a rate controlled freezer, and stored at −140° C. for up to 4 months.
Incubation and Assay for Interferon-α
Immediately prior to assay, vials of cryopreserved (frozen) PBMCs were thawed rapidly in a water bath at 37° C. A 1:10 dilution of the cells in trypan blue was prepared and counted. The PBMCs were then diluted in growth media [RPMI 1640 containing 10% fetal calf serum (invitrogen), Penicillin+Streptavidin (Gibco cat. # 25030-024, 1:50), L-Glutamine 2 mM, and 1000 units/ml recombinant human IFN-gamma (Preprotech catalogue #300-02)] to a density of 1×10^6 cells/ml, and 50 ul/well dispensed to 384-well clear Greiner polypropylene plates containing 0.25 μl DMSO or test compound in 0.25 μl DMSO. […] Plates were incubated for 24 h at 37° C. in 5% CO2.
A multi-isoform immunoassay was used to quantify IFN-α in PBMC supernatants. Rabbit polyclonal antibody against human IFN-α (catalogue number 31101, Stratech Scientific) was diluted 1:10000 in assay buffer (RPMI 1640 containing 10% fetal calf serum, Invitrogen) and 20 μl was added to each well of an MSD (Meso-Scale Discovery) single small-spot 384-well GAR (goat anti-rabbit antibody coated) plate. The plate was incubated for 1 h at room temperature with vigorous shaking. Following three washes with PBS, 20 μl of cell supernatant were added to each well of the plate. The plate was then incubated for 1 h at room temperature with vigorous shaking. A pair of monoclonal antibodies to IFN-α (catalogue numbers 21100 and 21112, Stratech Scientific) were labelled with sulfo-TAG (MSD), diluted 1:1000 in assay buffer and 20 μl added to each well of the plate. The plate was further incubated for 1 h at room temperature with vigorous shaking. Following three washes with PBS, 30 μl of ×2 T buffer (MSD) was added to each well and the plate was read on an MSD Sector 6000 plate reader.
Data were normalised to internal plate controls of 1 uM resiquimod (n=16) and DMSO (n=16). pEC50 values were derived by 4-parameter curve fit with IRLS in ActivityBase, from 11-point, two-fold serial dilution of test compounds.

Compound | EC50 [µM]
CCCCOc1nc(N)c2[nH]c(=O)n(CCN3CCN(C4CCCCC4)CC3)c2n1 [Example 2, 6-Amino-2-(butyloxy)-9-[2-(4-cyclohexyl-1-piperazinyl)ethyl]-7,9-dihydro-8H-purin-8-one dihydrochloride salt] | < 3.16
CCCCNc1nc(N)c2[nH]c(=O)n(CCN3CCN(C)CC3)c2n1 [Example 3, 6-Amino-2-(butylamino)-9-[2-(4-methyl-1-piperazinyl)ethyl]-7,9-dihydro-8H-purin-8-one] | < 3.16
CCCCNc1nc(N)c2[nH]c(=O)n(CCN3CCN(C(C)C)CC3)c2n1 [Example 4, 6-Amino-2-(butylamino)-9-{2-[4-(1-methylethyl)-1-piperazinyl]ethyl}-7,9-dihydro-8H-purin-8-one] | < 3.16
CCCCNc1nc(N)c2[nH]c(=O)n(CCN3CCN(C4CCCCC4)CC3)c2n1 [Example 5, 6-Amino-2-(butylamino)-9-[2-(4-cyclohexyl-1-piperazinyl)ethyl]-7,9-dihydro-8H-purin-8-one] | < 3.16
CCCCOc1nc(N)c2[nH]c(=O)n(CCCN3CCN(CC)CC3)c2n1 [Example 7, 6-Amino-2-(butyloxy)-9-[3-(4-ethyl-1-piperazinyl)propyl]-7,9-dihydro-8H-purin-8-one] | < 3.16
CCCCOc1nc(N)c2[nH]c(=O)n(CCCN3CCN(CCC)CC3)c2n1 [Example 8, 6-Amino-2-(butyloxy)-9-[3-(4-propyl-1-piperazinyl)propyl]-7,9-dihydro-8H-purin-8-one] | < 3.16
CCCCOc1nc(N)c2[nH]c(=O)n(CCCN3CCN(C(C)C)CC3)c2n1 [Example 9, 6-Amino-2-(butyloxy)-9-{3-[4-(1-methylethyl)-1-piperazinyl]propyl}-7,9-dihydro-8H-purin-8-one] | < 3.16
CCCCOc1nc(N)c2[nH]c(=O)n(CCCN3CCN(CCCC)CC3)c2n1 [Example 10, 6-Amino-2-(butyloxy)-9-[3-(4-butyl-1-piperazinyl)propyl]-7,9-dihydro-8H-purin-8-one] | < 3.16
CCCCOc1nc(N)c2[nH]c(=O)n(CCCN3CCN(CC(C)C)CC3)c2n1 [Example 11, 6-Amino-2-(butyloxy)-9-{3-[4-(2-methylpropyl)-1-piperazinyl]propyl}-7,9-dihydro-8H-purin-8-one] | < 3.16
CCCCOc1nc(N)c2[nH]c(=O)n(CCCN3CCN(C(C)(C)C)CC3)c2n1 [Example 12, 6-Amino-2-(butyloxy)-9-{3-[4-(1,1-dimethylethyl)-1-piperazinyl]propyl}-7,9-dihydro-8H-purin-8-one] | < 3.16
CCCCOc1nc(N)c2[nH]c(=O)n(CCCN3CCN(CC4CC4)CC3)c2n1 [Example 13, 6-Amino-2-(butyloxy)-9-{3-[4-(cyclopropylmethyl)-1-piperazinyl]propyl}-7,9-dihydro-8H-purin-8-one] | < 3.16
CCCCOc1nc(N)c2[nH]c(=O)n(CCCN3CCN(C4CCCC4)CC3)c2n1 [Example 14, 6-Amino-2-(butyloxy)-9-[3-(4-cyclopentyl-1-piperazinyl)propyl]-7,9-dihydro-8H-purin-8-one] | < 3.16
CCCCOc1nc(N)c2[nH]c(=O)n(CCCN3CCN(C4CCCCC4)CC3)c2n1 [Example 15, 6-Amino-2-(butyloxy)-9-[3-(4-cyclohexyl-1-piperazinyl)propyl]-7,9-dihydro-8H-purin-8-one] | < 3.16
CCCCNc1nc(N)c2[nH]c(=O)n(CCCN3CCN(C)CC3)c2n1 [Example 16, 6-Amino-2-(butylamino)-9-[3-(4-methyl-1-piperazinyl)propyl]-7,9-dihydro-8H-purin-8-one] | < 3.16
CCCCNc1nc(N)c2[nH]c(=O)n(CCCN3CCN(CC)CC3)c2n1 [Example 17, 6-Amino-2-(butylamino)-9-[3-(4-ethyl-1-piperazinyl)propyl]-7,9-dihydro-8H-purin-8-one] | < 3.16
CCCCNc1nc(N)c2[nH]c(=O)n(CCCN3CCN(CCC)CC3)c2n1 [Example 18, 6-Amino-2-(butylamino)-9-[3-(4-propyl-1-piperazinyl)propyl]-7,9-dihydro-8H-purin-8-one] | < 3.16

Compound | EC50 [µM]
CCCCNc1nc(N)c2[nH]c(=O)n(CCCN3CCN(C(C)C)CC3)c2n1 [Example 19, 6-Amino-2-(butylamino)-9-{3-[4-(1-methylethyl)-1-piperazinyl]propyl}-7,9-dihydro-8H-purin-8-one] | < 3.16
CCCCNc1nc(N)c2[nH]c(=O)n(CCCN3CCN(CCCC)CC3)c2n1 [Example 20, 6-Amino-2-(butylamino)-9-[3-(4-butyl-1-piperazinyl)propyl]-7,9-dihydro-8H-purin-8-one] | < 3.16
CCCCNc1nc(N)c2[nH]c(=O)n(CCCN3CCN(CC(C)C)CC3)c2n1 [Example 21, 6-Amino-2-(butylamino)-9-{3-[4-(2-methylpropyl)-1-piperazinyl]propyl}-7,9-dihydro-8H-purin-8-one] | < 3.16
CCCCNc1nc(N)c2[nH]c(=O)n(CCCN3CCN(C(C)(C)C)CC3)c2n1 [Example 22, 6-Amino-2-(butylamino)-9-{3-[4-(1,1-dimethylethyl)-1-piperazinyl]propyl}-7,9-dihydro-8H-purin-8-one] | < 3.16
CCCCNc1nc(N)c2[nH]c(=O)n(CCCN3CCN(CC4CC4)CC3)c2n1 [Example 23, 6-Amino-2-(butylamino)-9-{3-[4-(cyclopropylmethyl)-1-piperazinyl]propyl}-7,9-dihydro-8H-purin-8-one] | < 3.16
CCCCNc1nc(N)c2[nH]c(=O)n(CCCN3CCN(C4CCCC4)CC3)c2n1 [Example 24, 6-Amino-2-(butylamino)-9-[3-(4-cyclopentyl-1-piperazinyl)propyl]-7,9-dihydro-8H-purin-8-one] | < 3.16
CCCCNc1nc(N)c2[nH]c(=O)n(CCCN3CCN(C4CCCCC4)CC3)c2n1 [Example 25, 6-Amino-2-(butylamino)-9-[3-(4-cyclohexyl-1-piperazinyl)propyl]-7,9-dihydro-8H-purin-8-one] | < 3.16
CCCCOc1nc(N)c2[nH]c(=O)n(CCCCN3CCN(CCC)CC3)c2n1 [Example 28, 6-Amino-2-(butyloxy)-9-[4-(4-propyl-1-piperazinyl)butyl]-7,9-dihydro-8H-purin-8-one] | < 3.16
CCCCOc1nc(N)c2[nH]c(=O)n(CCCCN3CCN(CCCC)CC3)c2n1 [Example 30, 6-Amino-2-(butyloxy)-9-[4-(4-butyl-1-piperazinyl)butyl]-7,9-dihydro-8H-purin-8-one] | < 3.16
CCCCOc1nc(N)c2[nH]c(=O)n(CCCCN3CCN(CC(C)C)CC3)c2n1 [Example 31, 6-Amino-2-(butyloxy)-9-{4-[4-(2-methylpropyl)-1-piperazinyl]butyl}-7,9-dihydro-8H-purin-8-one] | < 3.16
CCCCOc1nc(N)c2[nH]c(=O)n(CCCCN3CCN(CC4CC4)CC3)c2n1 [Example 33, 6-Amino-2-(butyloxy)-9-{4-[4-(cyclopropylmethyl)-1-piperazinyl]butyl}-7,9-dihydro-8H-purin-8-one] | < 3.16
CCCCOc1nc(N)c2[nH]c(=O)n(CCCCN3CCN(C4CCCC4)CC3)c2n1 [Example 34, 6-Amino-2-(butyloxy)-9-[4-(4-cyclopentyl-1-piperazinyl)butyl]-7,9-dihydro-8H-purin-8-one] | < 3.16
CCCCOc1nc(N)c2[nH]c(=O)n(CCCCN3CCN(C4CCCCC4)CC3)c2n1 [Example 35, 6-Amino-2-(butyloxy)-9-[4-(4-cyclohexyl-1-piperazinyl)butyl]-7,9-dihydro-8H-purin-8-one] | < 3.16
CCCCNc1nc(N)c2[nH]c(=O)n(CCCCN3CCN(CC)CC3)c2n1 [Example 36, 6-Amino-2-(butylamino)-9-[4-(4-ethyl-1-piperazinyl)butyl]-7,9-dihydro-8H-purin-8-one] | < 3.16
CCCCNc1nc(N)c2[nH]c(=O)n(CCCCN3CCN(CCC)CC3)c2n1 [Example 37, 6-Amino-2-(butylamino)-9-[4-(4-propyl-1-piperazinyl)butyl]-7,9-dihydro-8H-purin-8-one] | < 3.16
CCCCNc1nc(N)c2[nH]c(=O)n(CCCCN3CCN(C(C)C)CC3)c2n1 [Example 38, 6-Amino-2-(butylamino)-9-{4-[4-(1-methylethyl)-1-piperazinyl]butyl}-7,9-dihydro-8H-purin-8-one] | < 3.16
